Measured values: ChEMBL document CHEMBL3885861, “Open TG-GATES”

Species on record: Rattus norvegicus
Assay: Open TG-GATES - Regimen: Daily Repeat
Assay type: toxicity, organism-based, Sprague-Dawley
Design: regimen Daily Repeat, gender Male, age 6 weeks
Conditions: in vivo, po, 200 mg/kg, […], route gavage, dose level Middle; for KIDNEY_L / KIDNEY_R / KIDNEY_TOTAL: tissue Kidney; for LIVER: tissue Liver; for A/G / ALP / ALT / AST / BUN / CRE / Ca / Cl / DBIL / GLC / IP / K / LDH / Na / PL / RALB / TBIL / TC / TG / TP / gamma-GTP: tissue Plasma

SMILES: C[C@](N)(Cc1ccc(O)c(O)c1)C(=O)O [METHYLDOPA]
- Lym (tissue Blood, time 28 day): 81.2%
- MCH (tissue Blood, time 28 day): 19.8 pg
- MCHC (tissue Blood, time 28 day): 35.1%
- MCV (tissue Blood, time 28 day): 56.5 fL
- Mono (tissue Blood, time 28 day): 1.4%
- Neu (tissue Blood, time 28 day): 15.6%
- PT (tissue Blood, time 28 day): 14 s
- Plat (tissue Blood, time 28 day): 101.7 x10_4/uL
- RBC (tissue Blood, time 28 day): 760.8 x10_4/ul
- Ret (tissue Blood, time 28 day): 2.3%
- WBC (tissue Blood, time 28 day): 76.9 x10_2/uL
- KIDNEY_L (time 7 day): 0.9 g
- KIDNEY_R (time 7 day): 0.9 g
- KIDNEY_TOTAL (time 7 day): 1.9 g
- KIDNEY_L (time 14 day): 1.1 g
- KIDNEY_R (time 14 day): 1 g
- KIDNEY_TOTAL (time 14 day): 2.1 g
- KIDNEY_L (time 28 day): 1.2 g
- KIDNEY_R (time 28 day): 1.2 g
- KIDNEY_TOTAL (time 28 day): 2.4 g
- LIVER (time 7 day): 8.8 g
- LIVER (time 14 day): 10.2 g
- LIVER (time 28 day): 12.9 g
- A/G (time 7 day): 0.9
- ALP (time 7 day): 1381.2 IU/L
- ALT (time 7 day): 45.4 IU/L
- AST (time 7 day): 67.8 IU/L
- BUN (time 7 day): 14.2 mg/dL
- CRE (time 7 day): 0.2 mg/dL
- Ca (time 7 day): 10.8 mg/dL
- Cl (time 7 day): 107.4 meq/L
- DBIL (time 7 day): 0.01 mg/dL
- GLC (time 7 day): 179.8 mg/dL
- IP (time 7 day): 7.7 mg/dL
- K (time 7 day): 4.3 meq/L
- LDH (time 7 day): 54.2 IU/L
- Na (time 7 day): 143.4 meq/L
- PL (time 7 day): 132.4 mg/dL
- RALB (time 7 day): 2.7 g/dL
- TBIL (time 7 day): 0.068 mg/dL
- TC (time 7 day): 84.2 mg/dL
- TG (time 7 day): 36.2 mg/dL
- TP (time 7 day): 5.7 g/dL
- gamma-GTP (time 7 day): 0.8 IU/L
- A/G (time 14 day): 0.8
- ALP (time 14 day): 1316.6 IU/L
- ALT (time 14 day): 42.2 IU/L
- AST (time 14 day): 61.8 IU/L
- BUN (time 14 day): 12.6 mg/dL
- CRE (time 14 day): 0.2 mg/dL
- Ca (time 14 day): 11 mg/dL
- Cl (time 14 day): 105.2 meq/L
- DBIL (time 14 day): 0.002 mg/dL
- GLC (time 14 day): 182.2 mg/dL
- IP (time 14 day): 7.1 mg/dL
- K (time 14 day): 4.4 meq/L
- LDH (time 14 day): 58 IU/L
- Na (time 14 day): 141.6 meq/L
- PL (time 14 day): 137 mg/dL
- RALB (time 14 day): 2.6 g/dL
- TBIL (time 14 day): 0.054 mg/dL
- TC (time 14 day): 87.6 mg/dL
- TG (time 14 day): 35.2 mg/dL
- TP (time 14 day): 5.7 g/dL
- gamma-GTP (time 14 day): 0.8 IU/L
- A/G (time 28 day): 0.8
- ALP (time 28 day): 1006.8 IU/L
- ALT (time 28 day): 39.8 IU/L
- AST (time 28 day): 55.4 IU/L
- BUN (time 28 day): 13.2 mg/dL
- CRE (time 28 day): 0.2 mg/dL
- Ca (time 28 day): 10.7 mg/dL
- Cl (time 28 day): 104.8 meq/L
- DBIL (time 28 day): 0.018 mg/dL
- GLC (time 28 day): 182.2 mg/dL
- IP (time 28 day): 6.4 mg/dL
- K (time 28 day): 4 meq/L
- LDH (time 28 day): 39.8 IU/L
- Na (time 28 day): 142.8 meq/L
- PL (time 28 day): 144.6 mg/dL
- RALB (time 28 day): 2.7 g/dL
- TBIL (time 28 day): 0.052 mg/dL
- TC (time 28 day): 89.2 mg/dL
- TG (time 28 day): 50.8 mg/dL
- TP (time 28 day): 6.1 g/dL
- gamma-GTP (time 28 day): 1.2 IU/L
